For one experiment, the target named is T1, GCN2 (Mus musculus, UniProt Q9QZ05).
T1 construct: endogenous in cells; host or cells: Neuro 2a (N2a)
In words: GCN2 inhibition cell-based assay (P-GCN2 Western blot in Neuro 2a cells). To be noted: amino acid deprived media (DMEM lacking L-cysteine and methionine), 3 hours. The method, then: Neuro 2a cells (N2a) were maintained at 37° C. and 5% CO2 in DMEM/F12 medium (Fisher Scientific) supplemented with 10% fetal bovine serum and 1% penicillin-streptomycin (complete medium). 300,000 cells/well were seeded in flat bottom 6 well plates 48 hours before treatment with the compounds.
Testing compounds were prepared at different concentrations ranging from 10 μM to 0.1 nM on DMEM medium lacking L-cysteine and methionine (DMEM-CM) (Gibco) and supplemented with 1% penicillin-streptomycin. Complete medium was used as control of non-stressed condition. After 48 hours, the medium was removed from each well and 2 mL per well of each treatment was added. Cells were treated for 3 hours at 37° C. and 5% CO2.
After the incubation time, each well was washed with sterile 1×PBS and then 100 μL of ice-cold lysis buffer supplemented with phosphatase and protease inhibitors was added. Lysates were transferred to 1.5 mL tubes and sonicated for 3 min, and total protein amounts were quantified using BCA assay (e.g., BCA Protein Assay Kit; Pierce) according to manufacturer instructions. Equal amount of proteins was loaded on SDS-PAGE gels for electrophoresis and then transferred onto 0.2 µm filter pore PVDF membranes.
Membranes were then blocked in blocking buffer containing 3% BSA/0.1% Tween/1×Tris-buffered saline (TBS) for 1 hour and then incubated overnight at 4° C. with agitation with anti-pGCN2 primary antibody (Abcam ab-75836), diluted 1:1,000 in blocking buffer. […] (Sigma Aldrich) was used as a loading control.
Membranes were then incubated with the corresponding secondary antibody to detect immune-reactive bands using enhanced chemiluminescence (e.g., ECL Western Blotting Substrate Pierce).
Images were acquired (e.g., using Chemidoc™ equipment) and quantitated by densitometry using ImageJ software. IC50 values were determined from a concentration-response curve using GraphPad prism software.
IC50 values from P-GCN2 inhibition assay after induction with amino acid deprived media in the presence of different concentrations of test compounds are shown in Table 2. For IC50 values: +++ refers to <10 nM of test compound; ++ refers to 10 nM to 100 nM of test compound; + refers to 100 nM to 1,000 nM of test compound and − refers to >1,000 nM of test compound.
Under GCN2-mediated stress conditions, resulting from an amino acid deprived medium, GCN2 is generally phosphorylated. Accordingly, inhibition of GCN2 phosphorylation as a result of the test compound indicates inhibition of the GCN2 pathway.
(In general: Immunoblotting shows a protein as a band on a membrane.)

The subject of a further experiment is CHOP (DDIT3) reporter. In words: GCN2-induction of CHOP and apoptosis in 3T3 fibroblasts with CHOP (DDIT3) reporter construct. Type of experiment: cell-based, murine. The method, then:
The CHOP construct comprised the […] (UTR) of mouse DDIT3 mRNA fused to a sequence encoding the fluorescent protein mCherry.
Cells were seeded at 5,000 cells per well in flat bottom 96-well plates in 100 μL DMEM low glucose media without phenol red, and supplemented with 10% FBS and 2 mM glutamine. After 24 hours, the exemplary compounds, and either tunicamycin, halofuginone, or histidinol, were added together with 100 nM of fluorescent apoptosis stain (YO-PRO™-1 Iodide; Thermo Fisher) to detect apoptotic cells. Cells were placed in a live-cell imaging and analysis platform (IncuCyte ZOOM®; Essenbio) set up in a humidified incubator at 37° C. and the plates were scanned every 4 hours for up 120 hours, at 10× magnification, to determine cell confluence and cell death. Experiments were performed in duplicate with 3 images collected per well, and analyzed using live-cell imaging and analysis software (IncuCyte ZOOM® 2018A software; Essenbio).

The next experiment deals with HT29 cells. In words: Growth of tumor spheroids. It counts as cell-based. Conditions: 64 μM arginine, up to 120 hours, vs untreated spheroids. The method, then:
The growth of tumor spheroids was evaluated following treatment of cells with Compound 1, Compound 2 and Compound 108. Briefly, HT29 cells were seeded at 5,000 cells/well in ultra-low attachment round bottom 96-well plates, in 100 μL SILAC DMEM Flex media without phenol red, supplemented with 10% fetal bovine serum (FBS), 1 g/L glucose, 2 mM glutamine, 220 μM lysine, and 64 μM arginine. The plates were centrifuged for 10 minutes at 125×g and put in a humidified incubator at 37° C. for 3 days before the onset of the experiment to allow spheroids to form.
Three days after seeding, 10 μM Compound 1, 10 μM Compound 2, 10 μM Compound 108 or 10 μM vehicle control (0.1% DMSO), were added together with 100 nM fluorescent apoptosis stain (e.g., YO-PRO™-1 Iodide; Thermo Fisher) to detect apoptotic cells and Nuclear-ID Red DNA Stain (1:100,000; ENZO Life Sciences) to detect live cells. Plates were placed in a live-cell imaging and analysis platform (e.g., IncuCyte ZOOM®; Essenbio) set up in a humidified incubator at 37° C. and scanned every 4 hours for up 120 hours, at 10× magnification, to determine relative spheroid size and cell death. Experiments were performed in quadruplicate and analyzed using live-cell imaging and analysis software (e.g., IncuCyte ZOOM® 2018A software; Essenbio).

T1 sequence (Q9QZ05 whole entry): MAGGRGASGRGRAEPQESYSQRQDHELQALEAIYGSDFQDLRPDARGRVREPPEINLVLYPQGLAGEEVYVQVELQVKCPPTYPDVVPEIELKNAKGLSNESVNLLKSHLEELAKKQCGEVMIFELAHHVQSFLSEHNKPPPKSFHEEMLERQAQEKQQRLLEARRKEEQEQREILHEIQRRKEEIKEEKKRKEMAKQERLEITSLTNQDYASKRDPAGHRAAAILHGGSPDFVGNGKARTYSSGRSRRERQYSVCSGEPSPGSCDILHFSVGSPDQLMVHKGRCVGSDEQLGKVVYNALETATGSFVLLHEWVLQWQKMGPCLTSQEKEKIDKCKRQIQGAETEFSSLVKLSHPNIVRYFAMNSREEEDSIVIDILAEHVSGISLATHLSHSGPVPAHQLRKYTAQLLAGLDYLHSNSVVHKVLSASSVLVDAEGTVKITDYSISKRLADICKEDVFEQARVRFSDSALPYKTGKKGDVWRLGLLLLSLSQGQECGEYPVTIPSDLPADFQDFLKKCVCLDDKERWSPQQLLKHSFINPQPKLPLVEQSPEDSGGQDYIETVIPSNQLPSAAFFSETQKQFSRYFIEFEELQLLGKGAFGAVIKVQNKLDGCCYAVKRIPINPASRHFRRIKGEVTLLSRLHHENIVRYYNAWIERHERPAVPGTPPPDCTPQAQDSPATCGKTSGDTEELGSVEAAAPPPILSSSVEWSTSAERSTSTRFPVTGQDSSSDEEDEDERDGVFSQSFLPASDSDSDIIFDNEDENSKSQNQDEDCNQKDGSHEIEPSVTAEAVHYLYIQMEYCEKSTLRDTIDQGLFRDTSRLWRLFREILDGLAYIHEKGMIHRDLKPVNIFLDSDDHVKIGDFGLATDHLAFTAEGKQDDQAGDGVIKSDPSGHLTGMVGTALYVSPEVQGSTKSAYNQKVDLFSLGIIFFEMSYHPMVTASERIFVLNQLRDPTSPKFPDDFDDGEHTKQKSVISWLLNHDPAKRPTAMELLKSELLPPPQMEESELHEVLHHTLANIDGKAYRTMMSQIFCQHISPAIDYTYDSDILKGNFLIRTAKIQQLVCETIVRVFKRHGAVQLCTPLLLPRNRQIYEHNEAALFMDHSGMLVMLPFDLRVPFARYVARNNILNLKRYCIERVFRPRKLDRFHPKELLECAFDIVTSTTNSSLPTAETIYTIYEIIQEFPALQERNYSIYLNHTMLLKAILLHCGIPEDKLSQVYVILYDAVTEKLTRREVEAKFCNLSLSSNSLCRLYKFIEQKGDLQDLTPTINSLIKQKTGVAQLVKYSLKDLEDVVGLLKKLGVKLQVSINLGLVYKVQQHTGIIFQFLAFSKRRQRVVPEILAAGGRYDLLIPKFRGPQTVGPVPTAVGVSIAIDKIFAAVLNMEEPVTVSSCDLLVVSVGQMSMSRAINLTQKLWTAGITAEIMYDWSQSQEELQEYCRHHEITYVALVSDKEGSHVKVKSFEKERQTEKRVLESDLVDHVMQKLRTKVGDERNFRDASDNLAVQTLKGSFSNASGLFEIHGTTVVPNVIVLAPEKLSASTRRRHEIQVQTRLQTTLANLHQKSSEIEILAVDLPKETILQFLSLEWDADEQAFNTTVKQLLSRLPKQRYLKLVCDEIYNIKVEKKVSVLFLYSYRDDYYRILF

By IC50 is commonly meant the midpoint of a concentration-inhibition curve. Lower therefore signals greater potency in that assay. Regarding `Nc1ncc2cc(-c3c(F)ccc(NS(=O)(=O)c4cc(Cl)cc(CO)c4Cl)c3F)ccc2n1` [Compound 108], at GCN2, the IC50 is below 10 nM. In the experiment with CHOP (DDIT3) reporter (murine 3T3 CHOP (mCherry) reporter fibroblasts, increasing concentrations, in the presence of halofuginone or histidinol), the “GCN2 activation / GCN2-induced CHOP activation” value is on record as “reduced GCN2 activation”. The “apoptosis induced by halofuginone” value in the experiment on CHOP (DDIT3) reporter (murine 3T3 WT cells, co-treatment with halofuginone) was “effectively inhibited apoptosis”. In addition, the “late-stage apoptosis induced by histidinol” value in the experiment with CHOP (DDIT3) reporter (murine 3T3 WT cells, co-treatment with histidinol) is “increased late-stage apoptosis”. For the same molecule, the “spheroid size and viability” value in the experiment on HT29 cells is “relative reduction in spheroid size and viability in a dose-dependent manner”.

These data come from US12630529B2, “GCN2 modulator compounds” (ALESTA THERAPEUTICS BV, priority 2020, dated 2026).
